From patent US7122675B2, “Gamma secretase inhibitors” (Schering Corporation, priority 2001, dated 2006)

target: T1, Gamma secretase (Homo sapiens, UniProt P49768); experiment: Gamma secretase activity assay (membranes of C99-expressing 293 cells, Aβ 40/Aβ 42 ECL immunoassay); format: biochemical; conditions: membranes incubated at 37 C for 1 h; Aβ 40 and Aβ 42 measured by ECL immunoassay; read-out: IC50 (concentration of compound producing 50% inhibition of enzyme activity)
T1 construct: endogenous in cells; host or cells: 293 cells (T-REx, clone pTRE.15), salt-washed membrane preparation; only the substrate SPC99-Lon is transfected
Protocol: Gamma secretase activity was determined as described by Zhang et a. (Biochemistry, 40 (16), 5049-5055, 2001). Activity is expressed either as a percent inhibition or as the concentration of compound producing 50% inhibition of enzyme activity.
Reagents. Antibodies W02, G2-10, and G2-11 were obtained from Dr. Konrad Beyreuther (University of Heidelberg, Heidelberg, Germany). W02 recognizes residues 5-8 of A peptide, while G2-10 and G2-11 recognize the specific C-terminal structure of A 40 and A 42, respectively. Biotin-4G8 was purchased from Senetec (St. Louis, Mo.). All tissue culture reagents used in this work were from Life Technologies, Inc., unless otherwise specified. Pepstatin A was purchased from Roche Molecular Biochemicals; DFK167 was from Enzyme Systems Products (Livermore, Calif.).
cDNA Constructs, Tissue Culture, and Cell Line Construction. The construct SPC99-Lon, which contains the first 18 residues and the C-terminal 99 amino acids of APP carrying the London mutation, has been described (Zhang, L., Song, L., and Parker, E. (1999) J. Biol. Chem. 274, 8966-8972). Upon insertion into the membrane, the 17 amino acid signal peptide is processed, leaving an additional leucine at the N-terminus of A. SPC99-Ion was cloned into the pcDNA4/TO vector (Invitrogen) and transfected into 293 cells stably transfected with pcDNA6/TR, which is provided in the T-REx system (Invitrogen). The transfected cells were selected in Dulbecco's modified Eagle's media (DMEM) supplemented with 10% fetal bovine serum, 100 units/mL penicillin, 100 µg/mL streptomycin, 250 µg/mL zeocin, and 5 µg/mL blasticidin (Invitrogen). Colonies were screened for A production by inducing C99 expression with […] tetracycline for 16-20 h and analyzing conditioned media with a sandwich immunoassay (see below). One of the clones, designated as pTRE.15, was used in these studies.
Membrane Preparation. C99 expression in cells was induced with […] tetracycline for 20 h. The cells were pretreated with […] 12-myristate 13-acetate (PMA) and […] brefeldin A (BFA) for 5-6 h at 37 C before harvesting. The cells were washed 3 times with cold phosphate-buffered saline (PBS) and harvested in buffer A containing 20 mM Hepes (pH 7.5), 250 mM sucrose, 50 mM KCl, 2 mM EDTA, 2 mM EGTA, and Complete protease inhibitor tablets (Roche Molecular Biochemicals). The cell pellets were flash-frozen in liquid nitrogen and stored at −70 C. before use.
To make membranes, the cells were resuspended in buffer A and lysed in a nitrogen bomb at 600 psi. The cell lysate was centrifuged at 1500 g for 10 min to remove nuclei and large cell debris. The supernatant was centrifuged at 100000 g for 1 h. The membrane pellet was resuspended in buffer A plus 0.5 M NaCl, and the membranes were collected by centrifugation at 200000 g for 1 h. The salt-washed membrane pellet was washed again in buffer A and centrifuged at 100000 g for 1 h. The final membrane pellet was resuspended in a small volume of buffer A using a Teflon-glass homogenizer. The protein concentration was determined, and membrane aliquots were flash-frozen in liquid nitrogen and stored at −70 C.
-Secretase Reaction and A Analysis. To measure -secretase activity, membranes were incubated at 37 C for 1 h in 50 L of buffer containing 20 mM Hepes (pH 7.0) and 2 mM EDTA. At the end of the incubation, Aβ 40 and Aβ 42 were measured using an electrochemiluminescence (ECL)-based immunoassay. Aβ 40 was identified with antibody pairs TAG-G2-10 and biotin-W02, while A 42 was identified with TAG-G2-11 and biotin-4G8. The ECL signal was measured using an ECL-M8 instrument (IGEN International, Inc.) according to the manufacturer's instructions. The data presented were the means of the duplicate or triplicate measurements in each experiment. The characteristics of -secretase activity described were confirmed using more than five independent membrane preparations.

IC50, 28 to 345 nM:
CC1COCC(C)N1C(=O)N1CCCC(N(c2cc(F)ccc2F)S(=O)(=O)c2ccc(Cl)cc2)C1 (centres unmarked) [Example 161]
C[C@@H]1CN(C(=O)OC(C)(C)C)CCN1C(=O)N1CCC[C@H](N(c2cc(F)ccc2F)S(=O)(=O)c2ccc(Cl)cc2)C1 [Example 214]
CN(C)CC1CCCCN1C(=O)N1CCC[C@H](N(c2cc(F)ccc2F)S(=O)(=O)c2ccc(Cl)cc2)C1 (some centres unmarked) [Example 213]
CC1CCCCN1C(=O)N1CCCC(N(c2cc(F)ccc2F)S(=O)(=O)c2ccc(Cl)cc2)C1 (centres unmarked) [Example 162]
COC(=O)c1ccc(CN(C2CCCN(C(=O)OC(C)(C)C)C2)S(=O)(=O)c2ccc([N+](=O)[O-])cc2)cc1 (centres unmarked) [Example 17]
COC(=O)c1ccc(CN(C2CCCN(C(=O)Cc3cccnc3)C2)S(=O)(=O)c2ccc(Cl)cc2)cc1 (centres unmarked) [Example 56]
O=C(N1CCN(CCOCCO)CC1)N1CCCC(N(c2cc(F)ccc2F)S(=O)(=O)c2ccc(Cl)cc2)C1 (centres unmarked) [Example 181]
COC(=O)c1ccc(CN(C2CCCN(C(=O)OC(C)(C)C)C2)S(=O)(=O)c2ccc(OC(F)(F)F)cc2)cc1 (centres unmarked) [Example 16]
COC(=O)c1ccc(CN(C2CCCN(C(=O)Cc3ccccc3)C2)S(=O)(=O)c2ccc(Cl)cc2)cc1 (centres unmarked) [Example 62]
O=C(N1CCN(CCO)CC1)N1CCCC(N(c2cc(F)ccc2F)S(=O)(=O)c2ccc(Cl)cc2)C1 (centres unmarked) [Example 182]
COC(=O)c1ccc(CN(C2CCCN(C(=O)OC(C)(C)C)C2)S(=O)(=O)c2ccc(-c3ccccc3)cc2)cc1 (centres unmarked) [Example 20]
COC(=O)c1ccc(CN(C2CCCN(C(=O)OC(C)(C)C)C2)S(=O)(=O)c2ccc(C(F)(F)F)cc2)cc1 (centres unmarked) [Example 14]
COC(=O)c1ccc(CN(C2CCCN(C(=O)C(C)C)C2)S(=O)(=O)c2ccc(OC)cc2)cc1 (centres unmarked) [Example 68]
O=C(N1CCCC(N(c2cc(F)ccc2F)S(=O)(=O)c2ccc(Cl)cc2)C1)N1CCCCC1CO (centres unmarked) [Example 192]
COC(=O)c1ccc(CN(C2CCCN(C(=O)OC(C)(C)C)C2)S(=O)(=O)c2ccc(C#N)cc2)cc1 (centres unmarked) [Example 18]
CN1CCN(C(=O)N2CCCC(N(c3cc(F)ccc3F)S(=O)(=O)c3ccc(Cl)cc3)C2)CC1 (centres unmarked) [Example 180]
COC(=O)c1ccc(CN(C2CCCN(C(=O)Cc3cc(F)cc(F)c3)C2)S(=O)(=O)c2ccc(C(F)(F)F)cc2)cc1 (centres unmarked) [Example 79]
